Experiments:
animals = animals without drug withdrawal or chronic stress; low dose fluoxetine; cited from earlier work
BALB/cJ mice = experiment: Prepulse inhibition of startle; type: in vivo, mouse
Method: For chronic fluoxetine studies in BALB/cJ mice, 60 male BALB/cJ mice were tested in the OF for 30 min on days 19 or 20 of chronic fluoxetine treatment. Mice were then pretested and tested in the modified FST on days 21 and 22, respectively. Animals were then allowed to adapt to being singly housed, and were trained for NIH on days 25-27. Home cage and novel cage testing occurred on days 28 and 29, respectively. Mice were then assessed for PPI on days 34 or 35.
Studies of subchronic fluoxetine were conducted using separate groups of 60 male BALB/cJ mice to prevent fluoxetine treatment from exceeding one week. One group was tested in the OF after one day of subchronic fluoxetine treatment. Mice were then pretested after 6 and tested after 7 days of subchronic fluoxetine treatment in the modified FST. A second group of BALB/cJ mice began fluoxetine treatment after being singly housed. They were then tested in the NIH test after 4 (home) and 5 (novel) days of subchronic fluoxetine treatment. A third group was tested for PPI after one or two days of subchronic fluoxetine treatment.
Prepulse Inhibition: Startle experiments were performed in MED-Associates chambers. Nonrestrictive Plexiglas cylinders 5 cm in diameter rested on a Plexiglas platform with a transducer amplifier. The sound-dampening isolation chambers were ventilated, well-lit, and equipped with an acoustic stimulator. Data acquisition was performed using Med-Associates software.
Five different trial types were presented in the test session: a 40-msec broadband 120 dB burst (PULSE ALONE trial); three different PREPULSE+PULSE trials in which 20-msec long 3 dB (pp3), 6 dB (pp6), or 12 dB (pp12) stimuli above a 70 dB background preceded the 120 dB pulse by 100 msec (onset to onset), and a NO STIMULUS trial, in which only the background noise was presented. Trials were presented in a pseudo-random order. A variable interval of 10-20 seconds separated trials.
The test session consisted of 62 test trials. The session began with a 10 min acclimation period, followed by four consecutive blocks of test trials. Blocks one and four consisted of six consecutive PULSE ALONE trials, while blocks two and three contained six PULSE ALONE trials, five pp3+p120 trials, five pp6+p120 trials, five pp12+p120 trials, and four NO STIMULUS trials. Analyses were performed using average values for each trial type.
Prepulse Inhibition: PPI was calculated as the averaged startle magnitude caused by PULSE ALONE trials from blocks two and three, minus the averaged startle magnitude caused by the prepulse-pulse trials, all divided by the averaged PULSE ALONE values from blocks two and three. The resulting value was multiplied by 100 and presented as a percent PPI value. Four-factor ANOVAs with fluoxetine and RU24969 as between subjects factors and prepulse intensity and block as within subjects variables assessed percent PPI levels. Interactions were resolved using post-hoc ANOVAs with adjusted p-values, and/or Newman-Keuls post-hoc tests.

SMILES	intracranial self-stimulation reward thresholds (animals)	PPI (BALB/cJ mice; 10 mg/kg RU24969 in mice treated subchronically with fluoxetine (1-2 days))	Startle reactivity (blocks two and three) (BALB/cJ mice; 10 mg/kg/day RU24969, chronic fluoxetine study)	PPI (BALB/cJ mice; acute 10 mg/kg RU24969 i.p. in control mice (no fluoxetine), 3, 6, 12 dB prepulse intensities)	startle reactivity in the second and third blocks (BALB/cJ mice; subchronic fluoxetine study (1-2 days), 10 mg/kg RU24969)
CNCCCN1c2ccccc2CCc2ccccc21 [desmethylimipramine]	no effect	–	–	–	–
COc1ccc2[nH]cc(C3=CCNCC3)c2c1 [RU24969, 5-methoxy-3(1,2,3,6)tetrahydropyridin-4-yl-1H-indole]	–	disrupted PPI at each prepulse intensity	increased overall	disrupted PPI in control mice	no effects
